BindingDB's records for patent US10988451 (Gilead Sciences, 2021)

molecular target: T1, Induced myeloid leukemia cell differentiation protein Mcl-1 [171-327] (Homo sapiens, UniProt Q07820); assay: AlphaLISA Assay
T1 construct: 171-327
Protocol: The AlphaLISA assay was performed in a 384-well Proxiplate in a total volume of […]. The reaction mixture contained 0.0625 nM 6× His-Mcl-1 (171-327), 0.0625 nM biotinylated-Bim peptide, 10 μg/mL AlphaLISA anti-6×His-AlphaLISA acceptor beads, 40 μg/mL AlphaScreen streptavidin donor beads, and serially diluted test compounds in the binding buffer (20 mM Hepes, pH 7.5 (Teknova H1035); 150 mM NaCl (Promega V4221); 0.002% Brij 35 (Thermo Scientific 20150); 1 mM Dithiothreitol (DTT) Solution (Affymetrix 70726); 0.01% BSA (BioLabs B9000S)). 1,000× test compounds were pre-spotted onto 384-well Proxiplate (Labcyte Echo) by Echo 555 Liquid Handler (Labcyte Inc., San Jose, Calif.) followed by incubation of 5 μl Mcl-1(171-327) for 1 hour. Then 5 μL Bim (51-76) was added and incubated for 2 hours. Five μL AlphaLISA anti-6His-AlphaLISA acceptor beads were then added for 1 hour followed by addition of 5 μL AlphaScreen streptavidin donor beads for 1 hour. The reaction plates were then read on an Envision multimode reader (PerkinElmer) using AlphaScreen settings.

T1 sequence (Q07820 171-327): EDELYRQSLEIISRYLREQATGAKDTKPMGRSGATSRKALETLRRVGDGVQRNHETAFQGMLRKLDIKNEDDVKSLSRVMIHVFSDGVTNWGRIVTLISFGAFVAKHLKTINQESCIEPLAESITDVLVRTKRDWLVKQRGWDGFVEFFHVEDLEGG

Row | Structure (SMILES) | IC50 [nM]
1 | CO[C@H]1/C=C/C[C@H](C)C[S@@](=O)(NC(=O)c2cc3n(c2F)CCOC3)=NC(=O)c2ccc3c(c2)N(C[C@@H]2CC[C@H]21)C[C@@]1(CCCc2cc(Cl)ccc21)CO3 [US10988451, Example 174] | 0.153
2 | C[C@@H]1[C@@H](C)C/C=C/[C@H](O)[C@@H]2CC[C@H]2CN2C[C@@]3(CCCc4cc(Cl)ccc43)COc3ccc(cc32)C(=O)N=[S@]1(=O)NC(=O)c1cc2n(c1)C[C@H](CN1CCN3CCOC[C@H]3C1)OC2 [US10988451, Example 229] | 0.03
3 | CO[C@H]1/C=C/C[C@H](C)C[S@@](=O)(NC(=O)C2CC(OC(F)F)C2)=NC(=O)c2ccc3c(c2)N(C[C@@H]2CC[C@H]21)C[C@@]1(CCCc2cc(Cl)ccc21)CO3 (stereo partly drawn) [US10988451, Example 431] | 0.121
